The values below come from PMC11645656, “MRGPRX4 mediates phospho-drug associated pruritus in a humanized mouse model” (Science translational medicine, 2024).

Values joined by “and” are separate entries in the source; they are usually repeats but may differ in a detail not shown here. Identical values can stand only once. Like-named read-outs stand apart in the source and are kept apart here. Where only a bound is given, the exact number is not on record here.

In this assay the target is T1, MRGPRX4 (S83) (Homo sapiens, UniProt Q96LA9, L83S).
T1 construct: expressed in transfected cells
Kind of assay: EC50 determination, intracellular calcium mobilization in MRGPRX4 stably expressed HEK293 cells (FLIPR Calcium 5, Flexstation-3). In kind it is cell-based. The arrangement: Fig. 1D dose-response, calcium mobilization response (individual replicate) / calcium mobilization response (Fig. 1D dose-response raw data): unit not given here. The settings on record: for calcium mobilization response (Fig. 1D dose-response raw data): individual replicate values; for EC50: read-out: EC50; for Hill coefficient: dose-response curve fitting. The procedure:
HEK293 cells and MRGPRX4 stably expressed HEK293 cells were seeded in 100 μl culture media on 96-well plates at a density of 40,000 cells per well and incubated overnight. The next day, the media were replaced with a dye-loading solution from the FLIPR Calcium 5 assay kit (Molecular Devices), diluted in Hank's Balanced Salt Solution (HBSS) with 20 mM HEPES, pH 7.4. After 1 h of incubation at 37°C, cells were allowed to recover for 10 min in the dark at room temperature prior to performing intracellular calcium mobilization assay in a Flexstation-3 instrument with SoftMax®Pro 7.1 software (Molecular Devices). Serial concentrations of tested drugs were prepared in HBSS/HEPES solution at 3X concentration. […] Compounds were tested in triplicates and the signals were averaged. Responses were determined by subtracting the minimum signal (at the baseline before adding the drug) from the maximum signal (obtained after drug stimulation). Four-parameter logistic (4PL) curve fit was used to plot the dose-response curves. […] Both dose-response curve fitting and EC50s calculation are computed with GraphPad Prism software (version: 6.o or above).
In general terms: A change in cytosolic calcium serves as a functional read-out for many receptors and channels.

Where [1] appears, read: MRGPRX4 stably expressed HEK293 cells, calcium mobilization.

T1 sequence (Q96LA9 whole entry L83S): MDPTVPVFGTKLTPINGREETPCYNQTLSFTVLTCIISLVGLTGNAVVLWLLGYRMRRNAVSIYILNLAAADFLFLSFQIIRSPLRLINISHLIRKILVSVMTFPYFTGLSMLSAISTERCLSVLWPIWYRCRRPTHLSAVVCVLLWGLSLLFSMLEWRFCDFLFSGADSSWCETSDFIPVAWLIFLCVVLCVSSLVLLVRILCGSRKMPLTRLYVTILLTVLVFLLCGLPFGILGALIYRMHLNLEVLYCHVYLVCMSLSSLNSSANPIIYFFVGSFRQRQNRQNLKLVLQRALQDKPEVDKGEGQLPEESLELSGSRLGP

`C[C@@H]1C[C@H]2[C@@H]3C[C@@H](O)C4=CC(=O)C=C[C@]4(C)[C@@]3(F)[C@@H](O)C[C@]2(C)[C@@]1(O)C(=O)CO` [6b-hydroxy Dexamethasone]: the “Fig. 1D dose-response, calcium mobilization response (individual replicate)” value was -11.185 and -2.950 and -9.064 and -1.271 and -4.466 (Concentration 9.76563e-7 M); -4.343 and -9.147 and -5.890 and -0.806 and -7.669 (Concentration 1.95313e-6 M); -10.884 and -6.013 and -8.580 and -8.133 and -5.676 (Concentration 3.90625e-6 M); -1.007 and -6.768 and -0.871 and -6.992 and -1.487 (Concentration 7.8125e-6 M); -3.580 and -12.887 and -7.336 and -12.885 and -3.031 (Concentration 1.5625e-5 M); -6.945 and -4.243 and -10.704 and -6.397 and -13.033 (Concentration 3.125e-5 M). In addition, the “Fig. 1D dose-response, calcium mobilization response (individual replicate)” value by setting is: (Concentration 6.25e-5 M) -3.167 and -3.420 and -21.978 and -8.518 and -4.898; (Concentration 0.00025 M) -19.291 and -10.466 and -0.309 and -10.053 and -7.780; (Concentration 0.0005 M) -6.623 and -13.594 and -13.062 and -8.352 and -18.691; (Concentration 0.001 M) -11.685 and -12.391 and -8.163 and -15.688 and -9.331.

`CC[C@]1(c2ccccc2)NC(=O)N(C)C1=O` [(R)-mephenytoin]: the “calcium mobilization response (Fig. 1D dose-response raw data)” value (concentration 4.88281e-7 M) was -28.494 and -0.685 and -28.419 and -1.368 and -39.430 and -16.800 and -4.015 and -27.858 and -25.726; the “calcium mobilization response (Fig. 1D dose-response raw data)” value (concentration 9.76563e-7 M) was -7.288 and -19.217 and -18.327 and -17.700 and -9.222 and -17.910 and -11.024 and -17.403 and -16.404; the “calcium mobilization response (Fig. 1D dose-response raw data)” value (concentration 1.95313e-6 M) is -4.806 and -21.809 and -22.673 and -18.368 and -20.701 and -10.218 and -45.398 and -2.556 and -1.333; the “calcium mobilization response (Fig. 1D dose-response raw data)” value (concentration 3.90625e-6 M) is -11.313 and -5.626 and -2.810 and -4.150 and -5.388 and -10.211 and -8.758 and -3.374 and -7.616; the “calcium mobilization response (Fig. 1D dose-response raw data)” value (concentration 7.8125e-6 M) was -13.282 and -38.673 and -86.390 and -55.539 and -30.274 and -52.531 and -40.546 and -63.168 and -34.632; the “calcium mobilization response (Fig. 1D dose-response raw data)” value (concentration 1.5625e-5 M) was -73.173 and -60.784 and -5.824 and -52.600 and -25.248 and -61.934 and -57.691 and -23.069 and -59.022. The “calcium mobilization response (Fig. 1D dose-response raw data)” value runs as follows: (concentration 3.125e-5 M) -77.603 and -4.145 and -51.921 and -55.448 and -9.903 and -68.319 and -36.832 and -68.498 and -28.339; (concentration 6.25e-5 M) -22.173 and -48.350 and -3.409 and -11.978 and -30.555 and -31.399 and -12.734 and -38.906 and -22.292; (concentration 0.00025 M) -56.927 and -11.154 and -10.026 and -28.148 and -45.428 and -4.530 and -28.870 and -12.606 and -36.630; (concentration 0.0005 M) -44.336 and -37.065 and -31.962 and -46.134 and -28.961 and -38.269 and -19.967 and -86.384 and -7.013.

With `CC[C@@]1(c2ccccc2)NC(=O)N(C)C1=O` [(S)-mephenytoin], the “calcium mobilization response (Fig. 1D dose-response raw data)” value is -20.370 and -28.895 and -20.737 and -16.113 and -11.794 and -17.288 and -8.111 and -30.820 and -18.667 (concentration 4.88281e-7 M); -14.910 and -10.110 and -14.446 and -15.834 and -19.023 and -15.341 and -3.659 and -28.710 and -12.463 (concentration 9.76563e-7 M); -18.478 and -17.267 and -18.784 and -17.855 and -11.934 and -14.257 and -17.051 and -23.967 and -8.270 (concentration 1.95313e-6 M); -5.757 and -11.730 and -8.574 and 8.283 and -10.074 and -11.646 and -8.442 and -1.458 and -9.849 (concentration 3.90625e-6 M); 26.923 and 9.795 and -10.857 and -10.275 and -14.955 and -11.140 and -1.065 and -2.234 and -1.955 (concentration 7.8125e-6 M); 9.387 and -3.753 and 17.104 and -13.591 and -6.859 and -9.499 and -1.610 and -1.506 and -0.489 (concentration 1.5625e-5 M). Also, the “calcium mobilization response (Fig. 1D dose-response raw data)” value runs as follows: (concentration 3.125e-5 M) 7.318 and 16.609 and 24.858 and -11.449 and -15.821 and -20.419 and 0.176 and 0.206 and 0.166; (concentration 6.25e-5 M) 20.640 and 67.105 and 19.512 and -1.060 and 14.827 and -6.587 and 28.221 and 5.104 and 23.894; (concentration 0.00025 M) 56.723 and 43.018 and 21.772 and 14.354 and 43.622 and 16.555 and 1.733 and 79.374 and 16.915; (concentration 0.0005 M) -10.031 and 14.167 and 0.209 and 8.392 and 6.582 and -2.785 and 5.320 and 0.368 and 2.580.

`CNC[C@H](O)[C@@H](O)[C@H](O)[C@H](O)CO.CNC[C@H](O)[C@@H](O)[C@H](O)[C@H](O)CO.C[C@@H](O[C@H]1OCCN(Cc2nn(P(=O)(O)O)c(=O)[nH]2)[C@H]1c1ccc(F)cc1)c1cc(C(F)(F)F)cc(C(F)(F)F)c1` [Fosaprepitant dimeglumine]: under setting [1], the half-maximal effective concentration (EC50) (commonly the midpoint of the concentration-response curve) amounted to 7 µM. Besides, where the note is “table S1”, the Hill coefficient (in general, a measure of the steepness of the concentration-response curve) turned out to be 3.670.

For `C[C@]12CCC(=O)C=C1CC[C@@H]1[C@@H]2[C@@H](O)C[C@@]2(C)[C@H]1CC[C@]2(O)C(=O)COC(=O)CCC(=O)O` [Hydrocortisone 21-hemisuccinate], under “table S1”, the EC50 is more than 500 µM.

`C[C@]12CCC(=O)C=C1CC[C@@H]1[C@@H]2[C@@H](O)C[C@@]2(C)[C@H]1CC[C@]2(O)C(=O)COP(=O)([O-])[O-].[Na+].[Na+]` [Hydrocortisone sodium phosphate]: the EC50 under setting [1] worked out at 0.328 µM. For the same compound, the Hill coefficient (table S1) was 1.411.

Take `O=C1NC(=O)C(c2ccccc2)(c2ccc(O)cc2)N1` (stereo not shown) [Hydroxyphenytoin]: the “Fig. 1D dose-response, calcium mobilization response (individual replicate)” value is -13.997 and -18.908 and -71.107 and -31.060 (Concentration 9.76563e-7 M); -36.810 and -38.751 and -15.180 and -28.223 (Concentration 1.95313e-6 M); -53.775 and -34.726 and -87.092 and -4.044 (Concentration 3.90625e-6 M); -6.273 and -4.175 and -11.050 and -115.284 (Concentration 7.8125e-6 M); -23.391 and -58.915 and -49.315 and -20.542 (Concentration 1.5625e-5 M); -58.615 and -86.247 and -12.733 and -61.272 (Concentration 3.125e-5 M). Besides, the “Fig. 1D dose-response, calcium mobilization response (individual replicate)” value reads like this: (Concentration 6.25e-5 M) -83.462 and -33.574 and -53.783 and -75.169; (Concentration 0.00025 M) -7.298 and -62.458 and -53.853 and -44.871; (Concentration 0.0005 M) -68.434 and -44.648 and -66.219 and -35.443; (Concentration 0.001 M) -67.062 and -39.432 and -24.454 and -47.392. Moreover, the “calcium mobilization response (Fig. 1D dose-response raw data)” value by setting is: (concentration 4.88281e-7 M) -38.335 and -44.136 and -38.604 and -53.703 and -53.375; (concentration 9.76563e-7 M) -21.881 and -18.856 and -41.417 and -3.943 and -41.401; (concentration 1.95313e-6 M) -33.904 and -36.161 and -55.798 and -55.451 and -16.637; (concentration 3.90625e-6 M) -41.290 and -41.879 and -47.340 and -95.401 and -28.834; (concentration 7.8125e-6 M) -43.390 and -45.131 and -40.251 and -36.055 and -69.327; (concentration 1.5625e-5 M) -49.874 and -56.147 and -54.231 and -13.701 and -87.936. Also, the “calcium mobilization response (Fig. 1D dose-response raw data)” value was -55.112 and -52.780 and -54.634 and -28.441 and -50.624 (concentration 3.125e-5 M); -46.992 and -52.460 and -54.562 and -23.886 and -26.540 (concentration 6.25e-5 M); -50.524 and -46.583 and -49.203 and -70.603 and -7.273 (concentration 0.00025 M); -43.005 and -35.783 and -32.491 and -3.926 and -40.291 (concentration 0.0005 M).
